Legend:
Type in all cases: in vivo
[1] = Blood (R)-3-hydroxybutyrate concentration in rats following administration of ketones; settings: for Peak Blood (R)-3-hydroxybutyrate: rats fed sour cream mix containing 2 g ketone in 10 ml water, blood before feeding and after 1, 3 and 6 hours
Protocol: Experiments were carried out to determine the concentration of blood (R)-3-hydroxybutyrate in rats following administration of various ketones. The ketones tested are set out in Table 4 below. The ketones were tasted in the same manner as Ketones 1 to 8 above.
(§1) Rats were each fed with a sour cream mix containing 2 g of a ketone as set out in […] in 10 ml water. Samples of blood from each rat were taken immediately prior to feeding, after 1 hour, 3 hours and 6 hours to determine the blood concentration of (R)-3-hydroxybutyrate. Two controls (Control A and Control B) were also tested by feeding with the same mix without the ketone added. The rats were humanely killed and dissected for visual inspection to determine whether pyloric constriction or other visible changes had occurred.
Blood was extracted and 0.1 ml of whole blood was added to 0.4 ml 3.6% perchloric acid subjected to vortex and then allowed to rest in ice for 30 minutes and then spun. 350 ul of acidic supernatant were then transferred to a new tube and 5 ul phenol red (0.05%), 20 ul 1 M Imidazole pH 7 and 3 M KHCO3 was added to neutralize the solution which was allowed to stand in ice for 30 minutes and then spun. A sample of the neutralized blood extract was then assayed for (R)-3-hydroxybutyrate.

[2] = Uptake of oligomeric ketones into the blood (Example 2)
Protocol: Procedures were carried out to determine the uptake of oligomeric ketones into the blood.

[3] = Visual inspection of dissected rats for pyloric constriction or other visible changes; settings: rats fed 2 g ketone, killed and dissected for visual inspection
Protocol: as §1, with “Samples of blood from each rat were taken immediately prior to feeding, after 1 hour, 3 hours and 6 hours to determine the blood concentration of (R)-3-hydroxybutyrate.” left out

[4] = Single oral dose/response of blood (R)-3-hydroxybutyrate (Example 5); settings: 192, 291, 395 and 573 mg/kg single dose
Protocol: (R)-3-hydroxybutyrate-R-1,3-butanediol monoester was administered in a single dose based on a fixed amount per kg of body weight of the subject to a number of subjects. The blood (R)-3-hydroxybutyrate concentration was determined over a period of time to determine the dose/response relationship between the oral single dose and the blood concentration of (R)-3-hydroxybutyrate. The procedure was repeated with different quantities of (R)-3-hydroxybutyrate-R-1,3-butanediol monoester to provide data on the dose/response relationship for (R)-3-hydroxybutyrate-R-1,3-butanediol monoester when administered at 192 mg/kg, 291 mg/kg, 395 mg/kg and 573 mg/kg.

CC(O)CC(=O)OC(C)CC(=O)OC(C)CC(=O)OCC[C@@H](C)OC(=O)CC(C)OC(=O)CC(C)OC(=O)CC(C)O (stereo partly drawn) [Ketone 10, (R)-1,3-butanediol ditriolide ester]
Peak Blood (R)-3-hydroxybutyrate [1]: about 1.5 mM | level of uptake to the blood relative to the linear/other oligomers tested (Ketones 9, 11 and 12) ([1]; rats, 2 g ketone): around 10 times | blood level of (R)-3-hydroxybutyrate (peak) [2]: about 1.5 mM

(R)-3-hydroxybutyrate-(R)-1,3-butanediol [Ketone 8]
Peak Blood (R)-3-hydroxybutyrate [1]: 6 mM | level of uptake to the blood relative to the triolide diester oligomer (Ketone 10) ([1]; rats, 2 g ketone): around 4 times | Symptoms [3]: No pyloric constriction, no gas | blood level of (R)-3-hydroxybutyrate (peak) [2]: 6000 µM | blood (R)-3-hydroxybutyrate concentration after single oral dose [4]: levels not previously reported with other ketones
